Entries after “also recorded” stand apart in the source; their conditions may differ.
Experiments:
[1] = tested on: S. aureus, A. niger, P. auerignosa; assay: Antimicrobial Effectiveness Testing, U.S. Pharmacopeial (USP <51>); format: cell-based; settings: USP and EP AET, insulin nasal spray formulations at neutral pH
Method: AET Study 1 was conducted to determine the Antimicrobial Effectiveness (AET) of an insulin nasal spray placebo with methylparaben sodium, propylparaben sodium, and propylene glycol. Additionally, AET Study 1 examined the AET of increased EDTA alone. Approximately 120 mL of each formulation was manufactured and tested in duplicate (n=2 analyses per sample).
(§1) The AET methods used were in compliance with the requirements for U.S. Pharmacopeial (USP) and European Pharmacopeial (EP) AET and are described in Tables 34 and 35, respectively. The formulations were also tested for pH (per SOP 403), appearance (visual), and osmolality (per SOP 4000).

[2] = pH, appearance (visual) and osmolality of AET formulations; format: physicochemical; settings: preservative within insulin nasal spray formulation
Method: as §1

compatibility with insulin [2] | Structure (SMILES) | antimicrobial effectiveness as preservative [1] | antimicrobial effectiveness as preservative ([1]; listed as benzakonium chloride) | compatibility with insulin ([2]; listed as benzakonium chloride) | antimicrobial effectiveness as preservative ([1]; listed as benzyl alcohol)
incompatible with insulin | CCCCCCCCCCCCC[N+](C)(C)Cc1ccccc1 [Benzalkonium chloride] | excellent preservative | best antimicrobial performance | incompatible with insulin (caused precipitation) | 
 | OCc1ccccc1 [Benzyl alcohol] | not effective preservatives at neutral pH; also recorded: ineffective as antimicrobial reagents |  |  | not effective preservatives
 | CCO [Ethanol] | antimicribal activity similar to that of methylparaben sodium/propylparaben sodium/propylene glycol; also recorded: not an effective preservative (at 1%) |  |  | 
 | Cc1cccc(O)c1 [m-cresol] | not effective preservatives |  |  | 
 | O=C([O-])c1ccccc1.[Na+] [sodium benzoate] | not effective preservatives at neutral pH |  |  | 
